The target in one assay is T1, HBV-Polymerase (Hepatitis B virus genotype D subtype ayw, UniProt P03156).
T1 construct: Es wurde zunächst die Hemmbarkeit der HBV-assoziierten Polymerase; host or cells: virus-associated endogenous polymerase
T1 sequence (P03156 whole entry): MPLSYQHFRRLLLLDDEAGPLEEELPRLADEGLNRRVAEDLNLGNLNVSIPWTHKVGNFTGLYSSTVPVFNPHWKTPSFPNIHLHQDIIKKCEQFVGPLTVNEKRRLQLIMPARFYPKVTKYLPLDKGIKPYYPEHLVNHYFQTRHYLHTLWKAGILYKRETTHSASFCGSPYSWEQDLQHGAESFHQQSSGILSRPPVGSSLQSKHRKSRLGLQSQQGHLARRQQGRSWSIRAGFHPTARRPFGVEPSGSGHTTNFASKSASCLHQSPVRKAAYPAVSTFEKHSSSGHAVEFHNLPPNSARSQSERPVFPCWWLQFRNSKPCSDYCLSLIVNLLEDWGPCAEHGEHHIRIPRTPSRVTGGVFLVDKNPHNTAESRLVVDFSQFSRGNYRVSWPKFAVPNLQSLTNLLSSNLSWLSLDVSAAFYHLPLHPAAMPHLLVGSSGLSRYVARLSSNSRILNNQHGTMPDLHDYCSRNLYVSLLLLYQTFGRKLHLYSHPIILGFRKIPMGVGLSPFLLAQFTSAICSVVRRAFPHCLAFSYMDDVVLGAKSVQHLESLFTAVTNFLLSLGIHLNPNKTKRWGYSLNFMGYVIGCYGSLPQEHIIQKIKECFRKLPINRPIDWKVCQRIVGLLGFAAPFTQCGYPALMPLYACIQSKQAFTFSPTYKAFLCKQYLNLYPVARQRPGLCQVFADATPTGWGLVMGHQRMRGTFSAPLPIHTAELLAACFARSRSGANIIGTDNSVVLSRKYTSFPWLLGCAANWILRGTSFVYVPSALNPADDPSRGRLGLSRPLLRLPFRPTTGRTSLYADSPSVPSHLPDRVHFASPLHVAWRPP
Description: Inhibition of HBV polymerase activity by nucleoside triphosphate analogues (method of Kaplan et al.). The class given is biochemical.
Conditions: not given
An excerpt:
Das Hepatitis B Virus (HBV) besitzt eine zirkuläre, partiell doppelsträngige DNA, welche nach Infektion einer Leberzelle durch eine viruseigene Polymerase repliziert wird. Dieser Vorgang setzt jedoch die Synthese einer RNA durch eine zelluläre RNA-Polymerase voraus. Nur diese RNA-Matrize - im Zusammenhang mit der Replikation auch als Prägenom bezeichnet - kann von der HBV-Polymerase für die Synthese zunächst eines RNA-DNA Hybrids und dann der doppelsträngigen DNA benutzt werden. Damit verfügt die HBV-Polymerase über eine enzymatische Aktivität, die der einer reversen Transcriptase ähnelt (Will et al., J.Virology 61, 904 (1987)). Es wurde zunächst die Hemmbarkeit der HBV-assoziierten Polymerase durch die 5′-Triphosphate der erfindungsgemäßen Verbindungen untersucht. Dazu wurde die von Kaplan et al. (J.Virology 12, 995 (1973)) angegebene Methode zur Bestimmung der HBV-Polymerase benutzt, wobei die zu testenden Triphosphate den Ansätzen in verschiedenen Konzentrationen zugesetzt wurden. Die Hemmung der Enzymreaktion wurde nach 3-stündiger Inkubation bei 37 °C durch Vergleich mit einem Kontrollwert ermittelt und daraus die Konzentration der zugesetzten Analoga bestimmt, die zu einer 50 %igen Hemmung der HBV-Polymerase-Aktivität führt (ID₅₀). Tabelle 1 zeigt die Ergebnisse, wobei insbesondere 2′,3′-Didesoxy-3′-fluor-5-methylcytidin durch einen Wert ID₅₀ von 0,03 µM herausragt und damit zu den stärksten bisher bekannten Hemmstoffen der HBV-Polymerase zu rechnen ist. Tabelle 1
`Nc1nc2c(ncn2[C@H]2C[C@H](F)[C@@H](COP(=O)(O)OP(=O)(O)OP(=O)(O)O)O2)c(=S)[nH]1` [2′,3′-Didesoxy-3′-fluor-6-thioguanosin-5′-triphosphat]: the IC50 came out at 500 nM.

The compound `Nc1ncc2ncn([C@H]3C[C@H](F)[C@@H](COP(=O)(O)OP(=O)(O)OP(=O)(O)O)O3)c2n1` [2′,3′-Didesoxy-3′-fluor-2-aminopurinribosid-5′-triphosphat] had an IC50 of 600 nM.

Still in this assay, the particulars now being: 50 % inhibition of HBV polymerase activity; 3 h incubation at 37 °C; read-out: ID₅₀.
On to `Nc1nc2c(ncn2[C@H]2C[C@H](N)[C@@H](COP(=O)(O)OP(=O)(O)OP(=O)(O)O)O2)c(=O)[nH]1` [2′,3′-Didesoxy-3′-aminoguanosin-5′-triphosphat], for which the IC50 was determined as 4000 nM.
